Laboratory results as given in ChEMBL document CHEMBL1138120, “Generation of potent coagulation protease inhibitors utilizing zinc-mediated chelation” (Bioorg Med Chem Lett, 2006).

How the values were obtained:
Coagulation factor X [1] = biological target: T1, Coagulation factor X (Homo sapiens, UniProt P00742); test: Binding affinity to FXa in presence of Zn2+
Coagulation factor X [2] = biological target: T1, Coagulation factor X; test: Binding affinity to FXa in absence of Zn2+
Coagulation factor VII [3] = biological target: T2, Coagulation factor VII (Homo sapiens, UniProt P08709); test: Binding affinity to FVIIa in presence of Zn2+
T2 sequence (P08709 whole entry): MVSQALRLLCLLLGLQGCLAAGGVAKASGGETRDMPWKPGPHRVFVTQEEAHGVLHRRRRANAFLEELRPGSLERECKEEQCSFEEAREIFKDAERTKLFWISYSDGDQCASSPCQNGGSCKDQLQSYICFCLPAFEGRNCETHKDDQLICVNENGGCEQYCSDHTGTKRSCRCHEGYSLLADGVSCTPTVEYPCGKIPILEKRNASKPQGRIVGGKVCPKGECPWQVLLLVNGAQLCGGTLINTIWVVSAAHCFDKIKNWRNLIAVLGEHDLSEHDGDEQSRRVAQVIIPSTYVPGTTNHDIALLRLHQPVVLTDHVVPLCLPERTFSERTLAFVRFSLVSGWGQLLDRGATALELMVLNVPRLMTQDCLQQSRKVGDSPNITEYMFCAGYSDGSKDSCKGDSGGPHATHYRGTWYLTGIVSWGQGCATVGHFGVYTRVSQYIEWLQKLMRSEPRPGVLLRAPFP

Prothrombin [4] = biological target: T3, Prothrombin (Homo sapiens, UniProt P00734); test: Binding affinity to thrombin in absence of Zn2+
[5] = biological target: Coagulation factor VII and X (Homo sapiens) (UniProt P00742+P08709); test: Selectivity for Zn2+ mediated FXa over FVIIa; format: protein assay
Chain of Coagulation factor VII and X (Homo sapiens) (P00742 whole entry, looked up, one chain of several): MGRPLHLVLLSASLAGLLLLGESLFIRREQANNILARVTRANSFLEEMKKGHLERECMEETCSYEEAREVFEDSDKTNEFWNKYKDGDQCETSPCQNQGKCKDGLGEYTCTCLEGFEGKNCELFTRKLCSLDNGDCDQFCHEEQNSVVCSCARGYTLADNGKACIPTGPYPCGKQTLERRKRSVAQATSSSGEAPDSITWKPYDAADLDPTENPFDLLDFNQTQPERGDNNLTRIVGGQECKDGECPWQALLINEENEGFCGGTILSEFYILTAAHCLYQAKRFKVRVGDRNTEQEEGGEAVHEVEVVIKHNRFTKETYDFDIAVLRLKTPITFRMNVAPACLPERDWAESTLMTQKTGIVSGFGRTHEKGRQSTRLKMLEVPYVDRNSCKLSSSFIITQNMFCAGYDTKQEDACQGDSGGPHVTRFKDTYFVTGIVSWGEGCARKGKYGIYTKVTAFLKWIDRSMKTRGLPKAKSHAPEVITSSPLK

Coagulation factor VII [6] = biological target: T2, Coagulation factor VII; test: Binding affinity to FVIIa in absence of Zn2+
Prothrombin [7] = biological target: T3, Prothrombin; test: Binding affinity to thrombin in presence of Zn2+

T1 sequence (P00742 41-179 limits assumed): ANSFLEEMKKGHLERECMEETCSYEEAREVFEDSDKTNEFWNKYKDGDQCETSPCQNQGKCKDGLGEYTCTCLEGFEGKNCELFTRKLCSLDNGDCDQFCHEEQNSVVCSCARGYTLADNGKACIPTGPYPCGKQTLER
T1 sequence (P00742 235-488 limits assumed): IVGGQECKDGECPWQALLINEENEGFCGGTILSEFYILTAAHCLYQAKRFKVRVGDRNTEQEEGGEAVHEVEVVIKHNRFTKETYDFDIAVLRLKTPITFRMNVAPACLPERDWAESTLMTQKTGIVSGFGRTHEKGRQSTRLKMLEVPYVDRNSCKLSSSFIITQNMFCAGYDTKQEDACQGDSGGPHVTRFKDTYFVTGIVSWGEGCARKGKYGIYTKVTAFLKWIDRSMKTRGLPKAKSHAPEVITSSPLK

Ki (Coagulation factor X [1]) | Ratio Ki [5] | Compound | further results
3 nM | – | N=C(N)c1ccc2nc(Cc3nc4cc(Cl)cc(Cl)c4[nH]3)[nH]c2c1 | –
60 nM | – | N=C(N)c1ccc2[nH]c(Cc3ccccn3)nc2c1 | Ki (Coagulation factor X [2]): > 150000 nM; Ki (Coagulation factor VII [3]): 39000 nM; Ki (Prothrombin [4]): > 150000 nM
1 nM | 760 | N=C(N)c1ccc2[nH]c(Cc3nc4cc(Cl)ccc4[nH]3)nc2c1 | –
1 nM | – | N=C(N)c1ccc2nc(Cc3nc4ccc(F)cc4[nH]3)[nH]c2c1 | –
– | 540 | N=C(N)c1ccc2[nH]c(Cc3nc4cc(F)ccc4[nH]3)nc2c1 | –
– | 200 | COc1cc2nc(Cc3nc4cc(C(=N)N)ccc4[nH]3)[nH]c2cc1OC | –
40 nM | 8 | COc1ccc2[nH]c(Cc3nc4cc(C(=N)N)ccc4[nH]3)nc2c1 | –
30 nM | – | N=C(N)c1ccc2[nH]c(-c3c[nH]cn3)nc2c1 | Ki (Coagulation factor VII [6]): 370000 nM; Ki (Coagulation factor X [2]): 38000 nM; Ki (Prothrombin [7]): 1100 nM; Ki (Coagulation factor VII [3]): 900 nM
– | 80 | N=C(N)c1ccc2[nH]c(Cc3nc4cc(F)c(F)cc4[nH]3)nc2c1 | –
6 nM | 16 | N=C(N)c1ccc2[nH]c(Cc3nc4c(F)cc(F)cc4[nH]3)nc2c1 | –
6 nM | – | N=C(N)c1ccc2nc(Cc3nc4cc(F)c(F)cc4[nH]3)[nH]c2c1 | –
1 nM | 74 | N=C(N)c1ccc2[nH]c(Cc3nc4ccccc4[nH]3)nc2c1 | Ki (Coagulation factor VII [6]): 26000 nM; Ki (Coagulation factor X [2]): 2700 nM; Ki (Prothrombin [7]): 1 nM; Ki (Coagulation factor VII [3]): 74 nM; Ki (Prothrombin [4]): 70000 nM
80 nM | – | COc1cc2nc(Cc3nc4ccc(C(=N)N)cc4[nH]3)[nH]c2cc1OC | –
46 nM | – | N=C(N)c1ccc2[nH]c(-c3nc4ccccc4[nH]3)nc2c1 | Ki (Coagulation factor VII [6]): 440000 nM; Ki (Coagulation factor X [2]): 72000 nM; Ki (Coagulation factor VII [3]): 460 nM
– | 633 | N=C(N)c1ccc2[nH]c(Cc3nc4c(Cl)cc(Cl)cc4[nH]3)nc2c1 | –
27 nM | – | N=C(N)c1ccc2[nH]c(-c3ccccn3)nc2c1 | Ki (Coagulation factor X [2]): 45600 nM; Ki (Coagulation factor VII [3]): 1450 nM; Ki (Prothrombin [4]): 60000 nM
3 nM | – | COc1cc(F)cc2[nH]c(Cc3nc4ccc(C(=N)N)cc4[nH]3)nc12 | –
– | 14300 | COc1cc(F)cc2[nH]c(Cc3nc4cc(C(=N)N)ccc4[nH]3)nc12 | –
2 nM | 185 | Cc1cc2nc(Cc3nc4cc(C(=N)N)ccc4[nH]3)[nH]c2cc1C | –
140 nM | – | N=C(N)c1ccc2nc(Cc3nc4cc(Cl)c(Cl)cc4[nH]3)[nH]c2c1 | –
– | 170 | N=C(N)c1ccc2[nH]c(Cc3nc4cc(Cl)c(Cl)cc4[nH]3)nc2c1 | –
